Reference: patent EP0712403B1, “MATRIX METALLOPROTEASE INHIBITORS” (SYNTEX (U.S.A.) INC., priority 1993, dated 1995)

Columns and labels:
HFC = molecular target: T1, HFC (Homo sapiens, UniProt P03956); assay: In vitro collagenase inhibition assay (thiopeptide/DACM fluorescence); type: biochemical
T1 construct: endogenous in cells; host or cells: GM0010A fibroblasts stimulated with PMA; enzyme purified from serum-free culture medium
T1 sequence (P03956 100-469): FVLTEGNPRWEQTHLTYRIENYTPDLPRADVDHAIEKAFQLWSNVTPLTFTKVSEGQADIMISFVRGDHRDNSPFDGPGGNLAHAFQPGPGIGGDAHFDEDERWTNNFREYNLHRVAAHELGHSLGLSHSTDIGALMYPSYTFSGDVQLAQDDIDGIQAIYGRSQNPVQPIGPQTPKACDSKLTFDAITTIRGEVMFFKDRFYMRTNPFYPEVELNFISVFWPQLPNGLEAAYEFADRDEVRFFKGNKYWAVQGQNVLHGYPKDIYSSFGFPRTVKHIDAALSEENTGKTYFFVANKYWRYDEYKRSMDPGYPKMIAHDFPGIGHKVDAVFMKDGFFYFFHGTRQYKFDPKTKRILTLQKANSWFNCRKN
Method: (§1) Compounds of formula (I) were dissolved in DMSO and added to a cuvette containing 0.2 µg Type I or 0.03 µg Type IV collagenase in 1 ml TC buffer (20mM Tris, 5mM CaCl2, pH 7.5) (2% DMSO final concentration). The concentrations of the compounds of formula (I) were chosen such that there was at least one data point for every 20% change in activity. Enzyme and compounds were permitted to pre-incubate 3 min at 37°C. To initiate the reaction, N-(7-dimethylamino-4-methyl)coumarinyl ("DACM") (Sigma) and thiopeptide (Ac-Pro-Leu-Gly-S-"Leu"-Leu-Gly-OEt, Bachem Bioscience Inc.) were added to 20 uM each. […] Each data point is the average of duplicate experiments. At least six data points, expressed as change in fluorescence per minute versus compound concentration were analyzed using the IC50 fit in the program, Enzfitter.

HNC = HNC (Homo sapiens, UniProt P22894); assay: In vitro metalloprotease inhibition assay (thiopeptide/DACM fluorescence); type: biochemical
Chain of HNC (P22894 101-467): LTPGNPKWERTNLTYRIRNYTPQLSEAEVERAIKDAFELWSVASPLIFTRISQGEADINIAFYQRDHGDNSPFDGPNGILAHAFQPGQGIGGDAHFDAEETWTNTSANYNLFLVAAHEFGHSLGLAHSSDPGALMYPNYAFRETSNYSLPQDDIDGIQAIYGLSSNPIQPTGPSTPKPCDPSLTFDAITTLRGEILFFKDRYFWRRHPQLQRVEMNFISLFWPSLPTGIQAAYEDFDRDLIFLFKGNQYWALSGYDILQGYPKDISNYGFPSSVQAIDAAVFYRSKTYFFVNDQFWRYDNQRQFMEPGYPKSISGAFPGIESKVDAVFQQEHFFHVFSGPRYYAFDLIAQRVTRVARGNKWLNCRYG

HNG = HNG (Homo sapiens, UniProt P14780); assay: as above; type: biochemical; settings: read-out: Ki or IC50 HNG
Chain of HNG (P14780 107-707 limits assumed): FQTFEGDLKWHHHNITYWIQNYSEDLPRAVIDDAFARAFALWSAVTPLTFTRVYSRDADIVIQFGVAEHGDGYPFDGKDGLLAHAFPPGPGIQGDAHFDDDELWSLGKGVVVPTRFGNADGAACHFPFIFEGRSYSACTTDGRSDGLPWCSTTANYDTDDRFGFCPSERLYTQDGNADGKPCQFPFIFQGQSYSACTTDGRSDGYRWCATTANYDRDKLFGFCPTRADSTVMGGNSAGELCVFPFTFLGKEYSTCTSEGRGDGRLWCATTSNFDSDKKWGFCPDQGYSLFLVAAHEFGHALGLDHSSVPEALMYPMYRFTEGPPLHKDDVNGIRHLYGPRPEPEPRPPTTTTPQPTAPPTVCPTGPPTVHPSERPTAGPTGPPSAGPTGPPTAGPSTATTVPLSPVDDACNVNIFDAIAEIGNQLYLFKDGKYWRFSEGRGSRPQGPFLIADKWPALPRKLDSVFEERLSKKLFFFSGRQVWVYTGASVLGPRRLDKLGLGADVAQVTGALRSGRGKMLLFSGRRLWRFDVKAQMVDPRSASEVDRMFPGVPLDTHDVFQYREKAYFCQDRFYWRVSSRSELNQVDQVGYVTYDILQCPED
Method: as §1

SLN = SLN (Homo sapiens, UniProt P08254); assay: as above; type: biochemical
Chain of SLN (P08254 100-477): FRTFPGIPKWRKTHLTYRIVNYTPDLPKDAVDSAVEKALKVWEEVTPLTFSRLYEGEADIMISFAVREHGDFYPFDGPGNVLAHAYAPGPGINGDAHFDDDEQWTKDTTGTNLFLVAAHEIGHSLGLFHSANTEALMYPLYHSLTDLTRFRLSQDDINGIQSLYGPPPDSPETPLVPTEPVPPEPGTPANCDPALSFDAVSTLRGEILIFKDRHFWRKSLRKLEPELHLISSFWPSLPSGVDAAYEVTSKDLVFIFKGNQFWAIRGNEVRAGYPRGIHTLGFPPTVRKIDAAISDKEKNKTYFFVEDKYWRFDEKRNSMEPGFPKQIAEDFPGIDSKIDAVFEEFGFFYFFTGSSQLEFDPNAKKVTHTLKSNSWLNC

cartilage explants = assay: Release of 35S-labelled glycosaminoglycans from cartilage explants; type: cell-based; settings: Bos taurus; inhibition of rhIL-1-alpha induced release of 35S-labelled GAG's, bovine knee joint cartilage explants
Method: This assay determines if the compounds of formula (I) inhibit the release of ^35S-labelled glycosaminoglycans (GAG's) from cartilage explants.
Small cartilage explants (3 mm diameter) were prepared from freshly sacrificed bovine knee joints and labeled with ^35SO4. ^35S-labelled glycosaminoglycans (GAG's) are released into the culture medium in response to the addition of rhIL-1-alpha, which induces the expression of chondrocyte matrix metalloproteases (MMP's), including stromelysin and collagenase. The percent inhibition of labeled GAG's was corrected for spontaneous release in the absence of rhlL-1-alpha. Results for each group represent the mean ± the S.E.M. for five explants.

fetal rat long bones = assay: Fetal rat long bone model, bovine PTH induced bone resorption (45Ca release); type: cell-based; settings: 144 h
From the text: An in vitro fetal rat long bone model was used to study the anti-bone resorptive effect of the compounds of formula (I). Bovine PTH was used to induce bone resorption in vitro. The bone resorptive effects were expressed by the amounts of ^45Ca released from the ^45Ca pre-labelled fetal rat long bones into the culture medium. The inhibitory effect of the compounds of formula (I) against bovine PTH induced bone resorption was expressed as mean percent inhibition ± sem.
^45Ca-prelabelled fetal rat long bones (from forearms) were dissected and cultured in Linbro dishes at 37°C overnight BGJb medium, supplemented with 1mg/ml BSA. There were five pairs of bones in each group. The compounds of formula (I) were dissolved in ethanol first, then diluted to various concentrations and added simultaneously with Bovine PTH (1-34) at 1x10^8M on Day 1. […] The assay was terminated on Day 6 with one media change on Day 3.
At the end of each medium change, the ^45Ca present in the culture medium was counted. The remaining bones were digested with 0.1N HCl and the ^45Ca presented in the bone digest was also counted. The results are expressed as % of the total ^45Ca released from each pair of bones. Bovine PTH at 1x10^-8M induces bone resorption to the maximum level which is set as 100% and this concentration was used as standard. […]

Matr = molecular target: T2, Matr (Homo sapiens, UniProt P09237); assay: In vitro metalloprotease inhibition assay (thiopeptide/DACM fluorescence); type: biochemical; settings: read-out: Ki or IC50 Matr
T2 sequence (P09237 95-267): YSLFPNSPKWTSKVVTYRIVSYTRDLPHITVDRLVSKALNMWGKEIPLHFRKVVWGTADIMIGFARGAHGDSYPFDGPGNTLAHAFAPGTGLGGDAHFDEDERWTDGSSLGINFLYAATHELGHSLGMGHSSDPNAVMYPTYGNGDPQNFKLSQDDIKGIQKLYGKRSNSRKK

CC(C)CC(CP(=O)(O)CSc1ccc2ccccc2n1)C(=O)N[C@H]1Cc2cn(c3ccccc23)CCCCCCNC1=O (stereo partly drawn) [Compound 4, (10S)-[4-methyl-2-(9-oxo-1,8-diazatricyclo[10.6.1.0^13,18]nonadeca-12(19),13(18),14,16-tetraen-10-ylcarbamoyl)pentyl] (quinolin-2-ylthiomethyl)phosphinic acid]
IC50 (HFC): 0.005 µM | IC50 (HNC): 0.004 µM | IC50 (HNG): 0.014 µM | IC50 (SLN): > 0.8 µM | IC50 (cartilage explants): 50 µM | IC50 (fetal rat long bones): 5 µM

CC(C)CC(CC(=O)NO)C(=O)N[C@H]1Cc2cn(c3ccccc23)CCCCCCCNC1=O (stereo partly drawn) [Compound 2, (11S)-N-hydroxy-5-methyl-3-(10-oxo-1,9-diazatricyclo-[11.6.1.0^14,19]eicosa-13(20),14(19),15,17-tetraen-11-ylcarbamoyl)hexanamide]
IC50 (HNG): 0.0002 µM | IC50 (Matr): 0.003 µM | IC50 (cartilage explants): 40 µM
